Where “and” joins values, the source holds several entries; their conditions need not be identical. Equal entries are not always repeated. Toxic doses and inconclusive results are not listed.
System: CD2F1 mice, L1210 leukemia ip, survival T/C
Assay: NCI In Vivo Anticancer Drug Screen. Data for tumor model L1210 Leukemia (intraperitoneal) in CD2F1 (CDF1) mice
Settings: higher = longer survival
Summary of the method: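 Each value reflects a quotient of treated over vehicle control outcomes in mice with a transplanted tumor.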

[1] = endpoint: mean survival time, dose: 25.0 mg/kg/injection, schedule: Q01DX009 (ip), vehicle: water
[2] = endpoint: mean survival time, dose: 50.0 mg/kg/injection, schedule: Q01DX009 (ip), vehicle: water
[3] = endpoint: mean survival time, dose: 100.0 mg/kg/injection, schedule: Q01DX009 (ip), vehicle: water
[4] = endpoint: mean survival time, dose: 100.0 mg/kg/injection, schedule: Q01DX001 (ip), vehicle: saline with Tween-80
[5] = endpoint: mean survival time, dose: 100.0 mg/kg/injection, schedule: Q04DX003 (ip), vehicle: saline with Tween-80
[6] = endpoint: mean survival time, dose: 200.0 mg/kg/injection, schedule: Q04DX003 (ip), vehicle: saline with Tween-80
[7] = endpoint: mean survival time, dose: 400.0 mg/kg/injection, schedule: Q04DX003 (ip), vehicle: saline with Tween-80
[8] = endpoint: mean survival time, dose: 200.0 mg/kg/injection, schedule: Q01DX009 (ip), vehicle: saline with Tween-80
[9] = endpoint: mean survival time, dose: 400.0 mg/kg/injection, schedule: Q01DX009 (ip), vehicle: saline with Tween-80
[10] = endpoint: mean survival time, dose: 12.5 mg/kg/injection, schedule: Q01DX009 (ip), vehicle: saline with Tween-80
[11] = endpoint: mean survival time, dose: 25.0 mg/kg/injection, schedule: Q01DX009 (ip), vehicle: saline with Tween-80
[12] = endpoint: mean survival time, dose: 50.0 mg/kg/injection, schedule: Q01DX009 (ip), vehicle: saline with Tween-80
[13] = endpoint: mean survival time, dose: 100.0 mg/kg/injection, schedule: Q01DX009 (ip), vehicle: saline with Tween-80
[14] = endpoint: mean survival time, dose: 100.0 mg/kg/injection, schedule: Q04DX002 (ip), vehicle: saline with Tween-80
[15] = endpoint: mean survival time, dose: 200.0 mg/kg/injection, schedule: Q01DX001 (ip), vehicle: saline with Tween-80
[16] = endpoint: mean survival time, dose: 200.0 mg/kg/injection, schedule: Q04DX002 (ip), vehicle: saline with Tween-80
[17] = endpoint: mean survival time, dose: 400.0 mg/kg/injection, schedule: Q01DX001 (ip), vehicle: saline with Tween-80

## CC(=O)OCC1CCN2CCCC12 (stereo unspecified)
endpoint: mean survival time, dose: 12.5 mg/kg/injection, schedule: Q01DX009 (ip), vehicle: water
  T/C: 101 % of control
[1]
  T/C: 96 % of control
[2]
  T/C: 98 % of control
[3]
  T/C: 101 % of control
endpoint: mean survival time, dose: 200.0 mg/kg/injection, schedule: Q01DX009 (ip), vehicle: water
  T/C: 101 % of control

## COc1cc(NCCCNCC(C)(C)C)c2ncccc2c1
endpoint: mean survival time, dose: 1.25 mg/kg/injection, schedule: Q01DX009 (ip), vehicle: Klucel (hydroxypropylcellulose) (HPC)
  T/C: 98 % of control
endpoint: mean survival time, dose: 2.5 mg/kg/injection, schedule: Q01DX009 (ip), vehicle: Klucel (hydroxypropylcellulose) (HPC)
  T/C: 105 % of control
endpoint: mean survival time, dose: 5.0 mg/kg/injection, schedule: Q01DX009 (ip), vehicle: Klucel (hydroxypropylcellulose) (HPC)
  T/C: 100 % of control
endpoint: mean survival time, dose: 10.0 mg/kg/injection, schedule: Q01DX009 (ip), vehicle: Klucel (hydroxypropylcellulose) (HPC)
  T/C: 105 % of control

## O=S(=O)(O)C(Nc1ccccn1)c1ccccc1 (stereo unspecified)
endpoint: mean survival time, dose: 25.0 mg/kg/injection, schedule: Q01DX001 (ip), vehicle: saline with Tween-80
  T/C: 98 % of control
endpoint: mean survival time, dose: 50.0 mg/kg/injection, schedule: Q01DX001 (ip), vehicle: saline with Tween-80
  T/C: 106 % of control
[4]
  T/C: 106 % of control

## OC(CC1=NCCS1)(c1ccccc1)c1ccccc1
[5]
  T/C: 93 % of control
[6]
  T/C: 87 % of control
[7]
  T/C: 98 % of control

## CNC(=O)O/N=C(\CN=[N+]=[N-])C(C)(C)C
endpoint: median survival time, dose: 0.25 mg/kg/injection, schedule: Q01DX009 (ip), vehicle: saline
  T/C: 102 % of control
endpoint: median survival time, dose: 0.5 mg/kg/injection, schedule: Q01DX009 (ip), vehicle: saline
  T/C: 96 % of control
endpoint: median survival time, dose: 1.0 mg/kg/injection, schedule: Q01DX009 (ip), vehicle: saline
  T/C: 103 % of control

## CC(=O)c1ccc(N=NC2C(=O)N(c3ccccc3)N=C2C)cc1 (stereo unspecified)
[8]
  T/C: 87 % of control
[9]
  T/C: 95 % of control

## CCN(N=O)C(=O)Nc1ccc(C2CC(=O)N(C)C2=O)cc1 (stereo unspecified)
endpoint: mean survival time, dose: 12.5 mg/kg/injection, schedule: Q01DX001 (ip), vehicle: distilled water + Tween-80
  T/C: 99 % of control
endpoint: mean survival time, dose: 25.0 mg/kg/injection, schedule: Q01DX001 (ip), vehicle: distilled water + Tween-80
  T/C: 111 % of control
endpoint: mean survival time, dose: 50.0 mg/kg/injection, schedule: Q01DX001 (ip), vehicle: distilled water + Tween-80
  T/C: 94 % of control and 98 % of control and 108 % of control
endpoint: mean survival time, dose: 100.0 mg/kg/injection, schedule: Q01DX001 (ip), vehicle: distilled water + Tween-80
  T/C: 122 % of control and 94 % of control and 96 % of control
endpoint: mean survival time, dose: 200.0 mg/kg/injection, schedule: Q01DX001 (ip), vehicle: distilled water + Tween-80
  T/C: 99 % of control and 101 % of control

## COc1cc2cc(c1Cl)N(C)C(=O)CC(OC(=O)C(C)C)C1(C)OC1C(C)C1CC(O)(NC(=O)O1)C(OC)/C=C/C=C(C)C2 (stereo unspecified)
endpoint: mean survival time, dose: 3.8 micrograms/kg/injection, schedule: Q01DX009 (ip), vehicle: saline + alcohol
  T/C: 100 % of control
endpoint: mean survival time, dose: 7.5 micrograms/kg/injection, schedule: Q01DX009 (ip), vehicle: saline + alcohol
  T/C: 97 % of control
endpoint: mean survival time, dose: 15.0 micrograms/kg/injection, schedule: Q01DX009 (ip), vehicle: saline + alcohol
  T/C: 114 % of control
endpoint: mean survival time, dose: 30.0 micrograms/kg/injection, schedule: Q01DX009 (ip), vehicle: saline + alcohol
  T/C: 111 % of control
endpoint: mean survival time, dose: 60.0 micrograms/kg/injection, schedule: Q01DX009 (ip), vehicle: saline + alcohol
  T/C: 111 % of control

## O=C(CNC(=O)Nc1cccc(C(F)(F)F)c1)N/N=C/c1ccccc1Cl
[10]
  T/C: 87 % of control
[11]
  T/C: 87 % of control
[12]
  T/C: 87 % of control and 96 % of control
[13]
  T/C: 103 % of control
[8]
  T/C: 100 % of control

## COC(=O)c1cncn1C1c2ccccc2-c2ccccc21
endpoint: mean survival time, dose: 50.0 mg/kg/injection, schedule: Q04DX002 (ip), vehicle: saline with Tween-80
  T/C: 103 % of control
[4]
  T/C: 86 % of control
[14]
  T/C: 98 % of control
[15]
  T/C: 91 % of control
[16]
  T/C: 95 % of control
[17]
  T/C: 91 % of control

## O=[N+]([O-])c1ccc(SSC(Cl)(Cl)Cl)cc1
endpoint: mean survival time, dose: 6.25 mg/kg/injection, schedule: Q01DX009 (ip), vehicle: saline with Tween-80
  T/C: 101 % of control
[10]
  T/C: 101 % of control
[11]
  T/C: 101 % of control
[12]
  T/C: 100 % of control

## CC12CCC(O)CC1=CCC1C2CCC2(C)C1CCC21CCNP(=O)(N(CCCl)CCCl)O1 (stereo unspecified)
endpoint: mean survival time, dose: 62.5 mg/kg/injection, schedule: Q01DX001 (ip), vehicle: saline
  T/C: 98 % of control
endpoint: mean survival time, dose: 125.0 mg/kg/injection, schedule: Q01DX001 (ip), vehicle: saline
  T/C: 101 % of control
endpoint: mean survival time, dose: 250.0 mg/kg/injection, schedule: Q01DX001 (ip), vehicle: saline
  T/C: 93 % of control
endpoint: mean survival time, dose: 500.0 mg/kg/injection, schedule: Q01DX001 (ip), vehicle: saline
  T/C: 97 % of control

## O=[N+]([O-])c1ccc(NCS(=O)(=O)O)cc1
[4]
  T/C: 91 % of control
[15]
  T/C: 94 % of control
[17]
  T/C: 87 % of control

## O=C(O)CC(=O)O.[NH-]CC[NH-].[Pt+2]
endpoint: mean survival time, dose: 25.0 mg/kg/injection, schedule: Q01DX009 (ip), vehicle: dextrose
  T/C: 100 % of control
endpoint: median survival time, dose: 40.0 mg/kg/injection, schedule: Q01DX009 (ip), vehicle: saline with Tween-80
  T/C: 89 % of control
endpoint: median survival time, dose: 50.0 mg/kg/injection, schedule: Q01DX001 (ip), vehicle: saline
  T/C: 111 % of control

## COc1ccc(OC)c(NC(=S)NC(=O)COc2ccccc2)c1
[4]
  T/C: 87 % of control
[13]
  T/C: 94 % of control and 97 % of control
[14]
  T/C: 98 % of control
[15]
  T/C: 87 % of control
[8]
  T/C: 88 % of control and 93 % of control
[16]
  T/C: 102 % of control
[17]
  T/C: 89 % of control
[9]
  T/C: 102 % of control and 104 % of control
endpoint: mean survival time, dose: 400.0 mg/kg/injection, schedule: Q04DX002 (ip), vehicle: saline with Tween-80
  T/C: 109 % of control

## Cc1ccc(C(=O)c2cnc(C)n2Cc2ccccc2)cc1
[13]
  T/C: 92 % of control
[8]
  T/C: 92 % of control
[9]
  T/C: 97 % of control

## CC(O)CN1CCN(CC(C)O)CC1.[Cl][Pt+2][Cl] (stereo unspecified)
endpoint: mean survival time, dose: 3.13 mg/kg/injection, schedule: Q04DX003 (ip), vehicle: saline with Tween-80
  T/C: 105 % of control
endpoint: mean survival time, dose: 6.25 mg/kg/injection, schedule: Q04DX003 (ip), vehicle: saline with Tween-80
  T/C: 102 % of control
endpoint: mean survival time, dose: 12.5 mg/kg/injection, schedule: Q04DX003 (ip), vehicle: saline with Tween-80
  T/C: 105 % of control
endpoint: mean survival time, dose: 25.0 mg/kg/injection, schedule: Q04DX003 (ip), vehicle: saline with Tween-80
  T/C: 102 % of control
endpoint: mean survival time, dose: 50.0 mg/kg/injection, schedule: Q04DX003 (ip), vehicle: saline with Tween-80
  T/C: 97 % of control

## O=P(Oc1cccc(Br)c1)(Oc1cccc(Br)c1)c1ccccc1
[5]
  T/C: 98 % of control
[6]
  T/C: 106 % of control
[7]
  T/C: 108 % of control

## COc1cc2ccc3c[n+](C)ccc3c2cc1OC
[1]
  T/C: 102 % of control and 100 % of control
[2]
  T/C: 107 % of control and 104 % of control
[3]
  T/C: 94 % of control and 114 % of control

## O=C(O)C(CSC(c1ccccc1)(c1ccccc1)c1ccccc1)N=Cc1cccs1 (stereo unspecified)
endpoint: mean survival time, dose: 12.5 mg/kg/injection, schedule: Q01DX009 (ip), vehicle: saline
  T/C: 109 % of control
endpoint: mean survival time, dose: 12.5 mg/kg/injection, schedule: Q01DX009 (ip), vehicle: suspension in saline
  T/C: 113 % of control
endpoint: mean survival time, dose: 25.0 mg/kg/injection, schedule: Q01DX009 (ip), vehicle: suspension in saline
  T/C: 111 % of control
endpoint: mean survival time, dose: 66.0 mg/kg/injection, schedule: Q01DX009 (ip), vehicle: saline
  T/C: 163 % of control
[13]
  T/C: 172 % of control
endpoint: mean survival time, dose: 100.0 mg/kg/injection, schedule: Q01DX009 (ip), vehicle: saline
  T/C: 163 % of control
endpoint: mean survival time, dose: 100.0 mg/kg/injection, schedule: Q01DX009 (ip), vehicle: suspension in saline
  T/C: 173 % of control
[8]
  T/C: 118 % of control
endpoint: mean survival time, dose: 200.0 mg/kg/injection, schedule: Q01DX009 (ip), vehicle: saline
  T/C: 90 % of control
endpoint: mean survival time, dose: 200.0 mg/kg/injection, schedule: Q01DX009 (ip), vehicle: suspension in saline
  T/C: 94 % of control

## CCCOC(=O)C(C(=O)OCCC)(C(=O)OCCC)C(=O)OCCC
endpoint: mean survival time, dose: 100.0 mg/kg/injection, schedule: Q01DX001 (ip), vehicle: saline
  T/C: 96 % of control
endpoint: mean survival time, dose: 200.0 mg/kg/injection, schedule: Q01DX001 (ip), vehicle: saline
  T/C: 107 % of control
endpoint: mean survival time, dose: 400.0 mg/kg/injection, schedule: Q01DX001 (ip), vehicle: saline
  T/C: 93 % of control

Reference: PubChem BioAssay AID256 (DTP/NCI, 2004)
